Series [1] is described as follows: Polarized light microscopy of drug suspended in buffers with or without sodium chloride. Format: physicochemical. The conditions noted are these: in the presence of chloride ion. The procedure: The common ion effect was studied using dissolution and microscopic methods. The microscopic method was conducted with drug suspended in water, pH 1.2, pH 4 and pH 6.5 buffers with and without sodium chloride. The dissolution of the drug and its granulations were studied using three different 2-step dissolution methods which entails the following: Method #1: simple 2-step buffers at pH 4 from 0-30 minutes and at pH 6.5 from 30-90 minutes. Method #2: simple 2-step buffers with the presence of chloride ion in both steps. Method #3: simple buffer at pH 4 with presence of chloride ion from 0-30 minutes; and buffer with bile salts and surfactants at pH 6.5 from 30-90 minutes. The two steps represent fed stomach and intestinal conditions, respectively.
Formulation Preparation Bulk drug powders were wet granulated with and without excipients. Granules were dried and sized through a #18 mesh screen. Polarized Microscopic Observation Microscopic test was conducted with drug suspended in water, pH 1.2, 4, and 6.5 buffers with and without sodium chloride. Dissolution Test: Four dissolution media were tested. Results of these tests are shown in line-graph formats in FIGS. 3-7. Bulk drug powders were wet granulated with and without excipients. […]
An in-vivo dog study was conducted with beagle dogs (wt=12 kg, n=3). […] Serial of plasma samples were collected, extracted, and analyzed by LC/MS/MS. […]

A short description of series [2]: Monkey oral bioavailability. The following applies: in vivo, at 20 mg/kg dose.
A short description of series [3]: Caco-2 permeability. The series is classed as in vitro ADME. The following applies: human. In general terms: Caco-2 monolayers are a common model of the intestinal barrier.
A short description of series [4]: pKa of model compound. The series is classed as physicochemical.
A short description of series [5]: Food effect. The following applies: in vivo.
Series [6] can be described thus: log P of model compound. The series is classed as physicochemical.
A short description of series [7]: Solubility. Format: physicochemical.

Values after ≈ are worked out from the molar mass of the structure shown. Read-outs that look alike come from different tables or passages of the source.

This note sets out measurements from patent US9409896B2, “Sustained release pharmaceutical compositions comprising an antibacterial agent” (Melinta Therapeutics, Inc., priority 2010, dated 2016).

The term bioavailability denotes the share of a dose that reaches the circulation, judged against a reference dose that is usually intravenous. As usually defined, the Papp is the rate of passage across a membrane or cell layer, normalised by area and donor concentration. By pKa is commonly meant the pH at which an ionisable group is half protonated. What is called logP is a log measure of how a compound divides between an organic and an aqueous phase. Usually solubility stands for how much of the substance goes into solution per volume.

Take `CC(=O)NC[C@H]1CN(c2ccc(-c3ccc(CNCc4cnn[nH]4)cc3)c(F)c2)C(=O)O1` [model compound, N-[3-(2-fluoro-4′-{[(3H-[1,2,3]triazol-4-ylmethyl)-amino]-methyl}-biphenyl-4-yl)-2-oxo-oxazolidin-5-(S)-ylmethyl]-acetamide]: in series [1], the “microscopic observation of aggregates” value was “formed aggregates in the presence of chloride ion”. Moreover, the bioavailability in series [2] was determined as 15%. In addition, the Papp in series [3] was 0.5 ×10⁻⁶ cm/s. In series [4], this compound showed a pKa of 6.8. This compound also registered a Positive food effect in series [5] of 4 ×. Moreover, the logP in series [6] turned out to be 0.7. Moreover, the solubility in series [7] (at pH 6.8, read-out: Intrinsic solubility) turned out to be 10 µg/mL (≈ 22.8 µM); in series [7] (water, pH 4, water, read-out: Solubility of salt in water), 2600 µg/mL; in series [7] (water, pH 5.4, water, read-out: Solubility of salt in water), 200 µg/mL; in series [7] (water, pH 6.5, water, read-out: Solubility of salt in water), 60 µg/mL.
